Assay results: paper PMC10892120, “Design, Synthesis and Biological Assessment of N′-(2-Oxoindolin-3-ylidene)-6-methylimidazo[2,1-b]thiazole-5-carbohydrazides as Potential Anti-Proliferative Agents toward MCF-7 Breast Cancer” (Pharmaceuticals, 2024)
Like-named read-outs stand apart in the source and are kept apart here.

What was measured:
MCF-7 breast cell line = assay: MTT assay, anti-proliferative activity toward MCF-7; type: cell-based; conditions: Homo sapiens, MCF7
Protocol: . The developed compounds were evaluated in vitro using the MTT cell viability assay following the published techniques (Supplementary Data, page 42). […]
(§1) The 96 well tissue culture plate was seeded with 1 X 10^5 cells / ml (100 ul / well) and cultured at 37 degrees Celsius for 24 hours to form a full monolayer sheet. After forming a confluent sheet of cells, growth medium was decanted from 96 well micro titer plates, the cell monolayer was washed twice with wash media, and two-fold dilutions of the tested sample were prepared in RPMI medium with 2% serum (maintenance medium). In each well, 0.1 ml of each dilution was examined, with three wells serving as controls and receiving only maintenance media.
(§2) The plate was incubated at 37 degrees Celsius and then analyzed. Cells were examined for any physical evidence of toxicity, such as partial or total monolayer loss, rounding, shrinkage, or cell granulation. MTT solution (5mg/ml in PBS) was prepared (BIO BASIC CANADA INC), and 20ul MTT solution was added to each well. Shake the MTT into the medium for 5 minutes at 150rpm on a shaking table. Incubate for 4 hours (37°C, 5% CO2) to allow the MTT to be digested. Remove the media. (If required, dry plate on paper towels to remove residue. In 200ul DMSO, resuspend formazan (MTT metabolic product). Shake at 150rpm for 5 minutes to properly mix the formazan into the solvent. At 560nm, measure optical density and subtract background at 620nm. The optical density should be proportional to the number of cells. MCF-7 and MCF-10A cell lines were provided with 10% fetal bovine serum (FBS, Sigma-Aldrich, MO, USA). Data are presented as the mean of the IC50 values ± SD from three different experiments. […]

MCF-7 cell line = conditions: cited from earlier work
MCF-10A = assay: MTT assay, cytotoxicity toward MCF-10A; type: cell-based; conditions: Homo sapiens
Protocol: The developed compounds were evaluated in vitro using the MTT cell viability assay following the published techniques (Supplementary Data, page 42). […]
as §1, §2

VEGFR-2 = VEGFR-2 (Homo sapiens, UniProt P35968); assay: In vitro VEGFR-2 kinase inhibition assay; type: biochemical; conditions: mean ± SD of three experiments
[1] = MCF-7 cell line, MTT assay, mean ± SD of three experiments, read-out: IC50
[2] = MTT assay, mean ± SD of three experiments, read-out: IC50

Sequence of VEGFR-2 (P35968 20-1356): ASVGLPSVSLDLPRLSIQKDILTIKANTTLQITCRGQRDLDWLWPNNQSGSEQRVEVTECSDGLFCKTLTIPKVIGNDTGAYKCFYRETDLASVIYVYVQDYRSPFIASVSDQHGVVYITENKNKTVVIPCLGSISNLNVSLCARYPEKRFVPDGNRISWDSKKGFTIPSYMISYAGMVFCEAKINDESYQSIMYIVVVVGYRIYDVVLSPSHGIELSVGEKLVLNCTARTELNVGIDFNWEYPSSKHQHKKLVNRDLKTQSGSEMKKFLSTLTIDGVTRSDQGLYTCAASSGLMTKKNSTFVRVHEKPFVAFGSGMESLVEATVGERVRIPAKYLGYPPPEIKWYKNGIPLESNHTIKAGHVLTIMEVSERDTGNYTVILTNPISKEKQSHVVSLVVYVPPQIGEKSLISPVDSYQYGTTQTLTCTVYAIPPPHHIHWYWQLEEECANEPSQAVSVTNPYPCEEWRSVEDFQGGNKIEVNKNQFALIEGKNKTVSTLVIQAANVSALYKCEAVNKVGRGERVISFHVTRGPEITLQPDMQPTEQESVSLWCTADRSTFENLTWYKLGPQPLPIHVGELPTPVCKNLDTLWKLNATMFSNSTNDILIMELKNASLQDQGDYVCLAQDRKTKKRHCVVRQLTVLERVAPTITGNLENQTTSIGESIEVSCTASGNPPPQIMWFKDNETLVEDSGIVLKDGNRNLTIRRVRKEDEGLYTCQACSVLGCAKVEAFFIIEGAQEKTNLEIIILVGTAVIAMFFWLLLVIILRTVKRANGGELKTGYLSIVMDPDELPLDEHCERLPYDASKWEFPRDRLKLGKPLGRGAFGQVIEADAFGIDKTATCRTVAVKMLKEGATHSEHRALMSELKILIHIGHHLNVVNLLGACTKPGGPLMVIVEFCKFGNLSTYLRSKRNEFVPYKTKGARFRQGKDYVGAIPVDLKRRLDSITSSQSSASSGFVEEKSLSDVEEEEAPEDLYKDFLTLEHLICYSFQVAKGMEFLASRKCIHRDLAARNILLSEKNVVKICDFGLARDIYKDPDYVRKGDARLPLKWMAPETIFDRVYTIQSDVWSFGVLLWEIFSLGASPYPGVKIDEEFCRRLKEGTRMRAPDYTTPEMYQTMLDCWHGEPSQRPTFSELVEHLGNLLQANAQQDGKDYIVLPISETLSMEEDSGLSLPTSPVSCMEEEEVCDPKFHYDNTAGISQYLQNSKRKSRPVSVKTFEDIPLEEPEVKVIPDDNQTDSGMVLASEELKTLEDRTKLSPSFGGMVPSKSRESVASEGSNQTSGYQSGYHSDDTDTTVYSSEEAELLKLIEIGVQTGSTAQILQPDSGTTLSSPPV

With `CCCCN1C(=O)/C(=N\NC(=O)c2c(C)nc3sccn23)c2cc(Br)ccc21` [Compound 6l, N′-(5-Romo-1-butyl-2-oxoindolin-3-ylidene)-6-methylimidazo[2,1-b]thiazole-5-carbohydrazide] as the compound, how does the IC50 (MCF-7 breast cell line) read?
The IC50 was 52.6 ± 2.36 µM.

And the melting point?
The melting point was 237 to 238 °C.

Which results are given for `COc1ccc(NC(=O)Nc2c(C)nc3sccn23)cc1` [Compound 8c, 1-(4-Methoxyphenyl)-3-(6-methylimidazo[2,1-b]thiazol-5-yl)urea]?
IC50 (MCF-7 breast cell line; [1]): 106 ± 5.32 µM; melting point: 284 to 285 °C

What does the source list for `Cc1nc2sccn2c1NC(=O)Nc1ccccc1` [Compound 8a, 1-(6-Methylimidazo[2,1-b]thiazol-5-yl)-3-phenylurea]?
IC50 (MCF-7 breast cell line; [1]): 110 ± 4.62 µM; melting point: 287 to 288 °C

With `CCCN1C(=O)C(=NNC(=O)c2c(C)nc3sccn23)c2cc(Br)ccc21` [Compound 6h, N′-(5-Bromo-2-oxo-1-propylindolin-3-ylidene)-6-methylimidazo[2,1-b]thiazole-5-carbohydrazide] as the compound, how does the IC50 (MCF-7 breast cell line) read?
The IC50 was 74.3 ± 2.19 µM.

And the melting point?
The melting point was 261 to 262 °C.

Which results are given for `Cc1nc2sccn2c1NC(=O)Nc1ccc(Cl)cc1` [Compound 8e, 1-(4-Chlorophenyl)-3-(6-methylimidazo[2,1-b]thiazol-5-yl)urea]?
IC50 (MCF-7 breast cell line; [1]): 35.7 ± 3.32 µM; melting point: 285 to 286 °C

For `Cc1nc2sccn2c1C(=O)NN=C1C(=O)Nc2ccc(Br)cc21` [Compound 6d, N′-(5-Bromo-2-oxoindolin-3-ylidene)-6-methylimidazo[2,1-b]thiazole-5-carbohydrazide], which IC50 (MCF-7 breast cell line; [1]) is on record?
The IC50 was 22.8 ± 1.38 µM.

And the melting point?
The melting point was 296 to 297 °C.

Which IC50 (MCF-7 breast cell line) does the source give for `CCCN1C(=O)C(=NNC(=O)c2c(C)nc3sccn23)c2cc(Cl)ccc21` [Compound 6g, N′-(5-Chloro-2-oxo-1-propylindolin-3-ylidene)-6-methylimidazo[2,1-b]thiazole-5-carbohydrazide] here?
Its IC50 is 52.5 ± 1.26 µM.

And the melting point?
The melting point was 254 to 255 °C.

For `CCCCN1C(=O)C(=NNC(=O)c2c(C)nc3sccn23)c2cc(Cl)ccc21` [Compound 6k, N′-(1-Butyl-5-chloro-2-oxoindolin-3-ylidene)-6-methylimidazo[2,1-b]thiazole-5-carbohydrazide], which IC50 (MCF-7 breast cell line) is on record?
Its IC50 is 42.7 ± 2.01 µM.

What about the melting point of the same compound?
Its melting point is 224 to 225 °C.

With `COc1ccc(-c2nc(N/N=C3/C(=O)Nc4ccc(Cl)cc43)c3ccccc3n2)cc1OC` [VIII] as the compound, how does the IC50 (MCF-7 cell line; MCF-7 cancerous cell line) read?
Its IC50 is 2.1 µM.

With `Cc1nc2sccn2c1C(=O)NN=C1C(=O)Nc2ccc(Cl)cc21` [Compound 6c, N′-(5-Chloro-2-oxoindolin-3-ylidene)-6-methylimidazo[2,1-b]thiazole-5-carbohydrazide] as the compound, how does the IC50 (MCF-7 breast cell line; [1]) read?
The IC50 was 43.1 ± 3.69 µM.

What about the melting point of the same compound?
The melting point was 292 to 293 °C.

Which results are given for `Cc1nc2sccn2c1C(=O)NN=C1C(=O)Nc2ccccc21` [Compound 6a, 6-Methyl-N′-(2-oxoindolin-3-ylidene)imidazo[2,1-b]thiazole-5-carbohydrazide]?
IC50 (MCF-7 breast cell line; [1]): 24 ± 0.67 µM; melting point: > 300 °C

With `Cc1nc2sccn2c1NC(=O)Nc1ccc(S(N)(=O)=O)cc1` [Compound 8g, 4-(3-(6-Methylimidazo[2,1-b]thiazol-5-yl)ureido)benzenesulfonamide] as the compound, how does the IC50 (MCF-7 breast cell line; [1]) read?
Its IC50 is 41.6 ± 1.59 µM.

And the melting point?
The melting point was 283 to 284 °C.

With `CCCCN1C(=O)C(=NNC(=O)c2c(C)nc3sccn23)c2cc(F)ccc21` [Compound 6j, N′-(1-Butyl-5-fluoro-2-oxoindolin-3-ylidene)-6-methylimidazo[2,1-b]thiazole-5-carbohydrazide] as the compound, how does the IC50 (MCF-7 breast cell line) read?
Its IC50 is 11.7 ± 0.52 µM.

What about the IC50 (MCF-10A) of the same compound?
Its IC50 is 47.7 ± 0.53 µM.

What about the IC50 (VEGFR-2) of the same compound?
The IC50 was 1.51 ± 0.06 µM.

And the melting point?
The melting point was 237 to 238 °C.

For `Cc1nc2sccn2c1NC(=O)Nc1ccc(Br)cc1` [Compound 8f, 1-(4-Bromophenyl)-3-(6-methylimidazo[2,1-b]thiazol-5-yl)urea], which IC50 (MCF-7 breast cell line; [1]) is on record?
The IC50 was 31.1 ± 2.47 µM.

What about the melting point of the same compound?
Its melting point is 288 to 289 °C.

For `COc1cc(C(=O)/C=C/c2c(C(F)(F)F)nc3sccn23)cc(OC)c1OC` [IX], which IC50 (MCF-7 cell line; MCF-7 cell line) is on record?
Its IC50 is 0.794 µM.

With `Cc1ccc(NC(=O)Nc2c(C)nc3sccn23)cc1` [Compound 8b, 1-(6-Methylimidazo[2,1-b]thiazol-5-yl)-3-(p-tolyl)urea] as the compound, how does the IC50 (MCF-7 breast cell line; [1]) read?
The IC50 was 115 ± 4.99 µM.

And the melting point?
Its melting point is 282 to 283 °C.

For `CCCN1C(=O)C(=NNC(=O)c2c(C)nc3sccn23)c2cc(F)ccc21` [Compound 6f, N′-(5-Fluoro-2-oxo-1-propylindolin-3-ylidene)-6-methylimidazo[2,1-b]thiazole-5-carbohydrazide], which IC50 (MCF-7 breast cell line) is on record?
The IC50 was 82.5 ± 2.75 µM.

And the melting point?
The melting point was 243 to 244 °C.

Which IC50 (MCF-7 breast cell line; [1]) does the source give for `Cc1nc2sccn2c1C(=O)NN=C1C(=O)Nc2ccc(F)cc21` [Compound 6b, N′-(5-Fluoro-2-oxoindolin-3-ylidene)-6-methylimidazo[2,1-b]thiazole-5-carbohydrazide] here?
The IC50 was 11.5 ± 0.52 µM.

What about the IC50 (MCF-10A; [2]) of the same compound?
Its IC50 is 125 ± 2.7 µM.

What about the IC50 (VEGFR-2) of the same compound?
The IC50 was 3.85 ± 0.15 µM.

What about the melting point of the same compound?
The melting point was over 300 °C.

Which results are given for `CCCN1C(=O)C(=NNC(=O)c2c(C)nc3sccn23)c2ccccc21` [Compound 6e, 6-Methyl-N′-(2-oxo-1-propylindolin-3-ylidene)imidazo[2,1-b]thiazole-5-carbohydrazide]?
IC50 (MCF-7 breast cell line): 61.4 ± 3.15 µM; melting point: 256 to 257 °C

Which IC50 (MCF-7 cell line; MCF-7 cancerous cell line) does the source give for `O=C1Nc2ccccc2/C1=N/N=C/c1ccc[nH]1` [VI] here?
The IC50 was 6.25 µM.

Which IC50 (MCF-7 breast cell line; [1]) does the source give for `Cc1nc2sccn2c1NC(=O)Nc1ccc(F)cc1` [Compound 8d, 1-(4-Fluorophenyl)-3-(6-methylimidazo[2,1-b]thiazol-5-yl)urea] here?
Its IC50 is 72.3 ± 4.71 µM.

What about the melting point of the same compound?
The melting point was 281 to 282 °C.

Which IC50 (MCF-7 breast cell line; [1]) does the source give for `CNC(=O)c1cc(Oc2ccc(NC(=O)Nc3ccc(Cl)c(C(F)(F)F)c3)cc2)ccn1` [Sorafenib (I), Sorafenib, reference compound] here?
Its IC50 is 7.55 ± 0.4 µM.

And the IC50 (MCF-10A; [2])?
Its IC50 is 22.4 ± 1.29 µM.
